What was measured:
Experiment in all cases: relative viability (nuclei count vs DMSO), 5 days (fraction); higher = more cells survive
[1] = compound: CCN(CCO)CCCC(C)Nc1ccnc2cc(Cl)ccc12 [Hydroxychloroquine] + Cc1cc(Nc2cc(N3CCN(C)CC3)nc(Sc3ccc(NC(=O)C4CC4)cc3)n2)n[nH]1 [Tozasertib] (partner 0.1 µM)
Outline: (§1)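 Lung cancer cell lines in 1536-well plates were dosed by pin tool the day after seeding, either with one drug alone or with a fixed anchor-drug dose plus five library-drug doses (not always all listed) in √10 steps. After 5 days, cells were fixed and their nuclei stained in one step (final 0.05% Triton X-100, 1% formaldehyde, 1 ug/ml Hoechst), then counted on 4× images. Relative viability is the nuclei count in treated wells divided by that in vehicle wells. Values are medians of duplicate plates.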

[2] = compound: CCN(CCO)CCCC(C)Nc1ccnc2cc(Cl)ccc12 [Hydroxychloroquine] + COc1cc2c(Oc3ccc(NC(=O)C4(C(=O)Nc5ccc(F)cc5)CC4)cc3F)ccnc2cc1OCCCN1CCOCC1 [Foretinib] (partner 0.25 µM)
Outline: as §1

[3] = compound: CCN(CCO)CCCC(C)Nc1ccnc2cc(Cl)ccc12 [Hydroxychloroquine] + NC(=O)Nc1cc(-c2cccc(F)c2)sc1C(=O)N[C@H]1CCCNC1 [AZD7762] (partner 0.2 µM)
Outline: as §1

[4] = compound: CCN(CCO)CCCC(C)Nc1ccnc2cc(Cl)ccc12 [Hydroxychloroquine] + CCNC(=O)c1noc(-c2cc(C(C)C)c(O)cc2O)c1-c1ccc(CN2CCOCC2)cc1 [Luminespib] (partner 0.01 µM)
Outline: as §1

Cell Line	relative viability ([1]; first compound 0.5 µM)	relative viability ([1]; first compound 1.581 µM)	relative viability ([1]; first compound 5 µM)	relative viability ([1]; first compound 15.81 µM)	relative viability ([1]; first compound 50 µM)	relative viability ([2]; first compound 0.5 µM)	relative viability ([2]; first compound 1.581 µM)	relative viability ([2]; first compound 5 µM)	relative viability ([2]; first compound 15.81 µM)	relative viability ([2]; first compound 50 µM)	relative viability ([3]; first compound 0.5 µM)	relative viability ([3]; first compound 1.581 µM)	relative viability ([3]; first compound 5 µM)	relative viability ([3]; first compound 15.81 µM)	relative viability ([3]; first compound 50 µM)	relative viability ([4]; first compound 0.5 µM)	relative viability ([4]; first compound 1.581 µM)	relative viability ([4]; first compound 5 µM)	relative viability ([4]; first compound 15.81 µM)	relative viability ([4]; first compound 50 µM)
NCI-H838	0.234	0.241	0.23	0.281	0.281	1.07	0.978	1.08	0.98	1.13	0.963	0.943	0.916	0.968	1.03	0.318	0.304	0.333	0.295	0.268
NCI-H1355	0.616	0.493	0.513	0.557	0.508	0.941	0.965	0.956	1.02	0.979	0.747	0.795	0.679	0.72	0.81	0.877	0.754	0.712	0.632	0.729
NCI-H1395	0.74	0.717	0.73	0.824	0.723	1.06	0.989	0.872	0.963	1.02	0.393	0.465	0.419	0.375	0.426	0.655	0.785	0.722	0.886	0.483
NCI-H1437	0.395	0.42	0.426	0.438	0.427	1.26	1.26	1.33	1.31	1.28	1.13	1.15	1.08	1.14	1.14	1.2	1.1	1.18	1.04	1.24
NCI-H1651	0.845	0.62	0.762	0.65	0.714	0.934	0.762	0.865	0.925	0.88	0.501	0.585	0.47	0.451	0.457	0.843	0.817	0.89	0.739	0.963
NCI-H1666	0.612	0.557	0.658	0.636	0.552	0.969	0.949	0.876	0.894	0.872	0.891	0.791	0.806	0.774	0.72	1.02	0.989	0.981	1.01	0.923
NCI-H1734	0.276	0.297	0.274	0.245	0.31	0.893	0.864	0.864	0.784	0.866	0.62	0.562	0.649	0.644	0.622	0.179	0.197	0.199	0.169	0.183
NCI-H1755	0.672	0.548	0.569	0.656	0.587	0.906	0.797	0.854	0.922	0.842	0.616	0.447	0.396	0.445	0.514	0.489	0.403	0.517	0.354	0.432

From the supplement of paper PMC10307832
